Assays:
Assay type in all cases: in vivo
[1] = tested on: Colletotrichum sublineolum; experiment: Detached sorghum leaf piece assay, control of anthracnose; details: sorghum leaf pieces, strain 1×10^8 CFU/ml, pyraclostrobin 10 ppm
Procedure: (§1) For detached-leaf assays performed in the following examples, bacterial strains stored in a freezer (−80° C.) were each streaked onto Luria Bertani (LB) agar (25 g LB broth and 15 g agar per liter of deionized water) in an 8.5-cm diameter plastic plate. A single colony from the plate was picked and placed in 50 ml of either LB liquid broth or a liquid broth consisting of NaCl (5 g), tryptone (10 g), nutrient broth (8 g), CaCl2 (0.14 mM), MgCl2·6H2O (0.2 mM), and MnCl2·4H2O (0.01 mM) per liter of deionized water in a 250-ml flask. Calcium chloride (CaCl2), MgCl2, and MnCl2 were filtered sterilized using 0.22 μm vacuum filter and were then added to NaCl, tryptone, nutrient broth (which were autoclaved together). Cultures were harvested after 48 h by pelleting cells and re-suspending to original volume in sterile H2O. Colony forming units (CFU/mL) were determined using standard dilution plate count method, and plates were inspected for signs of contamination. Sterile distilled water was added to achieve a final concentration needed in detached-leaf or growth chamber strain evaluations. […]
Seven days post inoculation, the leaf pieces were assessed for anthracnose severity on a scale of 0-4 according to Prom et al., 2016 (Plant Path J. 15(1): 11-16), with few modifications. […] Data was analyzed using analysis of variance (ANOVA) in JMP® (version 14.0.0; SAS Institute Inc., Cary, NC). […]

[2] = tested on: Mycosphaerella fijiensis; experiment: Grand Nain (Musa) leaf piece assay, control of black sigatoka; details: Grand Nain leaf pieces, strain 1×10^8 CFU/ml, mancozeb 10 ppm
Procedure: as §1
Data recorded were the most progressed stage on inoculated leaves, 3 to 4 weeks after inoculation (Stover 1986). Data were analyzed using analysis of variance (ANOVA) in PROC GLM of SAS (version 9.4; SAS Institute Inc., Cary, NC) and significant differences (P<0.05) were observed among treatments.

[3] = tested on: Podosphaera xanthii; experiment: Squash leaf disc assay, control of powdery mildew on cucurbits; details: squash leaf discs, bacterial suspension 200 μL, tebuconazole 10 ppm
Procedure: as §1, with “contamination.” for “contamination. Sterile distilled water was added to achieve a final concentration needed in detached-leaf or growth chamber strain evaluations.”
Leaf disks were inoculated on the treated leaf surface by spraying a conidial suspension (1×10^6 conidia/ml of sterile distilled water) of P. xanthii (an isolate obtained from Dr. McGrath laboratory, Cornell University). […] The number of powdery mildew colonies were also recorded for each treatment. […] Data was analyzed in SAS JMP version 14.0.

[4] = tested on: Podosphaera xanthii; experiment: Squash leaf disc assay with wettable powder formulations, control of powdery mildew; details: squash leaf discs, 150 μL, tebuconazole 10 ppm as control
Procedure: For the tray drying method, 829 grams of cell paste obtained from a liquid culture of ATP15329 was mixed with 18.24 g of glycerol and 72.95 g of microcel E using a food processor. Half of the cell paste was dried at 40° C. to a water activity of less than 0.30, at which time it contained 3.53E11 CFU/g. The other half was dried at 25° C. and 50% RH to a water activity of less than 0.6, at which time it contained 4.75E11 CFU/g. The dried powder formulation was stored in heat sealed mylar pouches at 4° C.
For the spray drying method, 200 grams of cell paste obtained from a liquid culture of ATP15329 was mixed with 22 g of skim milk powder using an emulsion blender. This material was spray dried at outlet temperature of 70° C., at which time it contained 7.86E10 CFU/g. The dried powder formulation was stored in heat sealed mylar pouches at 4° C.
This evaluation followed the protocol used in Example 3. Briefly, leaf disks were each sprayed with 150 μL of different formulations of the bacterial strain AIP015329, tebuconazole 10 ppm (fungicide control) on the adaxial surface 24 hours before inoculation with the fungal pathogen. After treatment, leaf disks were incubated in the dark for 24 hours at 23° C.
Leaf disks were inoculated on the treated leaf surface by spraying a conidial suspension (1×10^6 conidia/ml of sterile distilled water) of P. xanthii. Inoculated and non-inoculated/not treated controls were added. Treatments were placed into sealed clear plastic boxes and incubated for six days at 25° C. with a relative humidity of 80% and a 12 h photoperiod. Each treatment was rated on a disease severity scale from 0 to 4, with 0 being no symptoms and 4 being greater than 50% of the leaf disk covered with colonies. The number of powdery mildew colonies were also recorded for each treatment. This experiment was run once, with each treatment replicated three times. Data was analyzed in SAS JMP version 14.0.

Molecule: COC(=O)N(OC)c1ccccc1COc1ccn(-c2ccc(Cl)cc2)n1 [Pyraclostrobin]
- Disease Control (%) Confirmation ([1]; confirmation screen with freshly grown culture): 79.2 (a) %
- Disease Control (%) Primary Screen ([1]; treated 24 h before inoculation, rated 7 days post inoculation): 95.2 (a) %

Molecule: mancozeb
- Disease Control (%) Primary Screen ([2]; 3 to 4 weeks after inoculation): 92.3 (a) %
- Disease Control (%) Confirmation ([2]; confirmation): 81.0 (a) %

Molecule: CC(C)(C)C(O)(CCc1ccc(Cl)cc1)Cn1cncn1 (stereo not drawn) [Tebuconazole, tebuconazole]
- Disease Control (%) Confirmation ([3]; confirmation): 75.0 (a) %
- Disease Control (%) Primary Screen ([3]; treated 24 h before inoculation, six days incubation): 87.5 (a) %
- Disease Control (%) Spray dry ([4]; spray dried formulation of the strain): 96.0 (a) %
- Disease Control (%) Tray dry Dried at 25° C. ([4]; tray dried formulation dried at 25° C.): 96.0 (a) %
- Disease Control (%) Tray dry Dried at 40° C. ([4]; tray dried formulation dried at 40° C.): 96.0 (a) %

From US20240251801A1, “COMPOSITIONS AND METHODS FOR IMPROVING PLANT HEALTH AND CONTROLLING PLANT DISEASE” (AgBiome, Inc., priority 2021, published 2024)
